Experimental data: patent publication US20120020915A1, “Compounds and Methods for Treating Cancer and Diseases of the Central Nervous System” (QUEENS UNIVERSITY AT KINGSTON, priority 2007, published 2012)

Key:
[1] = test system: HCT-116 colorectal carcinoma; experiment: Colorectal carcinoma model HCT-116 in SCID mice, tumor growth delay; assay type: in vivo, Mouse (Mus musculus); male SCID; details: dosage of 60 mg/kg
Text: (§1) Control groups received the vehicle alone.

[2] = test system: B16-BL6 cells (mouse melanoma); experiment: Metastatic B16-BL6 melanoma model, lung surface metastases; assay type: in vivo; details: vehicle control: 101
Procedure: B16-BL6 cells (mouse melanoma). B16-BL6 metastatic variant was derived from B16-F10. This cell variant was obtained from Dr. Linda D. Williams, Dept. of Cancer Biology, MD Anderson Cancer Center, Texas, USA. […] Cells were maintained at 37° C. in a humidified atmosphere (5% CO2, 95% air).
as §1

cultured rat astroglia = details: cited from earlier work; for mitochondrial iron accumulation in astroglia transfected with human ho-1 gene: transient transfection
[3] = assay type: in vivo; details: QC-56 60 mg/kg ip, 4 cycles; chemotherapy drugs ip
Text: as §1

[4] = test system: vascular smooth muscle cells (VSMC); details: exposure of VSMC; cited from earlier work
HO-1 (rat spleen) = biological target: T1, HO-1 (rat spleen) (Rattus norvegicus, UniProt P06762); experiment: HO enzymatic activity, rat spleen microsomal fraction (CO formation from methemalbumin); assay type: biochemical; details: CO formation from methemalbumin, mean ± SD of replicate experiments, read-out: IC50 HO-1 (rat spleen/μM)
T1 construct: Spleen microsomes were used as a source of HO-1; from tissue; host or cells: spleen microsomal fraction of adult male Sprague-Dawley rats
T1 sequence (P06762 1-289): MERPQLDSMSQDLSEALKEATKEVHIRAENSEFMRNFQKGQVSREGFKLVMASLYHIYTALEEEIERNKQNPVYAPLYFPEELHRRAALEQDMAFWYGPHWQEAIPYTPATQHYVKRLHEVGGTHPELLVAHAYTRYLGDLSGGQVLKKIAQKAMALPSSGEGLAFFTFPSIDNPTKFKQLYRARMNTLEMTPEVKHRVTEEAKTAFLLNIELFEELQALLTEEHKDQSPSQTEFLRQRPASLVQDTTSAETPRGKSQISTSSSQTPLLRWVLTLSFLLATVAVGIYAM

HO-2 (rat brain) = biological target: T2, HO-2 (rat brain) (Rattus norvegicus, UniProt P23711); experiment: HO enzymatic activity, rat brain microsomal fraction (CO formation from methemalbumin); assay type: biochemical; details: IC50 HO-2 (rat brain)/μM), CO formation from methemalbumin, mean ± SD of replicate experiments
T2 construct: brain microsomes were used as a source of HO-2; from tissue; host or cells: brain microsomal fraction of adult male Sprague-Dawley rats
T2 sequence (P23711 1-315): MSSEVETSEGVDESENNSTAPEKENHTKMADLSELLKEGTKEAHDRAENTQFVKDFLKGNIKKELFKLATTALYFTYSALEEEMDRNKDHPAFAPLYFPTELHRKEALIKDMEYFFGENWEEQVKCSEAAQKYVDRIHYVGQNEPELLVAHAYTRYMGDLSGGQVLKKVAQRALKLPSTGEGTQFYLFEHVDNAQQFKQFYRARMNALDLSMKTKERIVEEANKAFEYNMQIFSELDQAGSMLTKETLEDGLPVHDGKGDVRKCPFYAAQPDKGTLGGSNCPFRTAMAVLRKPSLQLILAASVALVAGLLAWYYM

[5] = test system: CD31-positive vessels in SKMEL-V+ tumors; experiment: CD31 immunohistochemistry / microvessel density of SKMEL-V+ tumors; assay type: in vivo, Mouse (Mus musculus), male SCID; details: QC-56 particularly at 60 mg/kg
Procedure: Cell cultures were maintained in 5% CO2/95% air at 37° C. SKMEL-V (human melanoma cells). SKMEL-V cells were derived from SKMEL-24 cells (ATCC) by overexpression of mouse VEGF. […] Tumors were either snap frozen in liquid nitrogen or fixed in 10% buffered formalin and embedded in paraffin. […] BD PharMingen, San Diego, Calif.). […] Sections were rehydrated in PBS and then blocked with 5% normal goat serum for 1 h. The sections were then incubated overnight at 4° C. with CD31 antibody diluted 1:25 in 3% BSA-PBS. […] Paraffin-embedded material was used for Harris' hematoxylin. Microvessel density was quantified using a method described by Weidner et al ([…], and Folkman […]. Med, 1991; 324:1-8). Briefly, randomly vascularized areas were selected (hot spots) under 40× field and 100× fields. Then a 400× field was used to count microvessels in each of these areas. Single endothelial cells or clusters of endothelial cells with or without lumen were considered to be individual vessels. […] All slides were examined blindly with no prior knowledge of the treatment status.

Structure (SMILES): O=c1[nH]cc(F)c(=O)[nH]1 [5-FU, Fluorouracil, reference compound]
- mortality [1]: induced mortality

Structure (SMILES): N.N.[Cl][Pt][Cl] [cisplatin, cis-diaminedichloroplatinum(II), reference compound]
- macroscopic nodules in the lungs (average) [2]: 60 nodules

Structure (SMILES): C[C@@H]1C[C@H]2[C@@H]3CCC4=CC(=O)C=C[C@]4(C)[C@@]3(F)[C@@H](O)C[C@]2(C)[C@@]1(O)C(=O)CO [dexamethasone]
- mitochondrial iron sequestration in astrocytes exposed to β-amyloid, TNFα or IL-1β (cultured rat astroglia; dexamethasone 50 μg/mL): significantly attenuated mitochondrial iron sequestration
- mitochondrial iron accumulation in astroglia transfected with human ho-1 gene (cultured rat astroglia): abolished the pathological accumulation of mitochondrial ^55Fe

Structure (SMILES): CC(=O)O[C@H]1C(=O)[C@@]2(C)[C@H]([C@H](OC(=O)c3ccccc3)[C@]3(O)C[C@H](OC(=O)[C@H](O)[C@@H](NC(=O)c4ccccc4)c4ccccc4)C(C)=C1C3(C)C)[C@]1(OC(C)=O)CO[C@@H]1C[C@@H]2O [Taxol™, paclitaxel, reference compound]
- toxicity in the combination study [3]: induced some loss of body weights/mortality
- HO-1 expression and activity [4]: dose and time dependent increase in HO-1 expression and activity

Structure (SMILES): CCC1=C(C)c2cc3[n-]c(cc4[n-]c(cc5nc(cc1n2)C(C)=C5CC)c(C)c4CCC(=O)O)c(CCC(=O)O)c3C.[Cl-].[Cl-].[Sn+4] [SnMP]
- mitochondrial iron accumulation in astroglia transfected with human ho-1 gene (cultured rat astroglia): abolished the pathological accumulation of mitochondrial ^55Fe

Structure (SMILES): Cl.OC(CCc1ccccc1)Cn1ccnc1 (racemic) [QC-76, (±)-1-(1H-imidazol-1-yl)-4-phenyl-2-butanol hydrochloride]
- IC50 (HO-1 (rat spleen)): 6 ± 1 µM
- IC50 (HO-2 (rat brain)): 16 ± 8 µM
- melting point: 56 to 57 °C

Structure (SMILES): Cl.O=C(Cn1ccnc1)C12CC3CC(CC(C3)C1)C2 [QC-82, 1-(adamantan-1-yl)-2-imidazol-1-yl-ethanone hydrochloride]
- IC50 (HO-1 (rat spleen)): 3 ± 1 µM
- IC50 (HO-2 (rat brain)): > 100 µM
- melting point: 261 to 262 °C

Structure (SMILES): CN(C)/N=N/c1[nH]cnc1C(N)=O [Dacarbazine, reference compound]
- vessel count / tumor vascularization (CD31) [5]: minor effect
